# Counter-ions that a name gives are not always drawn.
# Key:
# Conditions in all cases: 72 h
# Caco-2 [1] = test: relative viability EC50 (midpoint between 100% and the lowest measured viability); higher = less toxic
# U2OS [2] = test: as above
# Vero E6 [3] = test: as above
# Calu-3 [4] = test: as above
# Caco-2 [5] = test: drug sensitivity score (DSS) for viability; higher = more toxic; extreme values may be limits of the assay
# U2OS [6] = test: as above
# Vero E6 [7] = test: as above
# Calu-3 [8] = test: as above
# Caco-2 [9] = test: cell viability relative to DMSO; higher = less toxic
# U2OS [10] = test: as above
# Vero E6 [11] = test: as above
# Calu-3 [12] = test: as above
# HepG2 [13] = test: relative viability EC50 (midpoint between 100% and the lowest measured viability); higher = less toxic
# HepG2 [14] = test: drug sensitivity score (DSS) for viability; higher = more toxic; extreme values may be limits of the assay
# HepG2 [15] = test: cell viability relative to DMSO; higher = less toxic
SMILES,relative viability EC50 (Caco-2 [1]) [µM],relative viability EC50 (U2OS [2]) [µM],relative viability EC50 (Vero E6 [3]) [µM],relative viability EC50 (Calu-3 [4]) [µM],drug sensitivity score (Caco-2 [5]),drug sensitivity score (U2OS [6]),drug sensitivity score (Vero E6 [7]),drug sensitivity score (Calu-3 [8]),cell viability (Caco-2 [9]; 1 nM) [%],cell viability (Caco-2 [9]; 10 nM) [%],cell viability (Caco-2 [9]; 100 nM) [%],cell viability (Caco-2 [9]; 1000 nM) [%],cell viability (Caco-2 [9]; 10000 nM) [%],cell viability (U2OS [10]; 1 nM) [%],cell viability (U2OS [10]; 10 nM) [%],cell viability (U2OS [10]; 100 nM) [%],cell viability (U2OS [10]; 1000 nM) [%],cell viability (U2OS [10]; 10000 nM) [%],cell viability (Vero E6 [11]; 1 nM) [%],cell viability (Vero E6 [11]; 10 nM) [%],cell viability (Vero E6 [11]; 100 nM) [%],cell viability (Vero E6 [11]; 1000 nM) [%],cell viability (Vero E6 [11]; 10000 nM) [%],cell viability (Calu-3 [12]; 1 nM) [%],cell viability (Calu-3 [12]; 10 nM) [%],cell viability (Calu-3 [12]; 100 nM) [%],cell viability (Calu-3 [12]; 1000 nM) [%],cell viability (Calu-3 [12]; 10000 nM) [%],relative viability EC50 (HepG2 [13]) [µM],drug sensitivity score (HepG2 [14]),cell viability (HepG2 [15]; 1 nM) [%],cell viability (HepG2 [15]; 10 nM) [%],cell viability (HepG2 [15]; 100 nM) [%],cell viability (HepG2 [15]; 1000 nM) [%],cell viability (HepG2 [15]; 10000 nM) [%]
CC(=O)NC1N=C(c2ccccc2)c2ccccc2NC1=O (stereo not drawn),> 10,> 10,> 10,> 10,0,0,0,0,103,97.7,93.9,101,103,101,94.6,95.5,95.3,96.9,98.5,96.5,99,93.7,108,112,101,101,101,95.1,,,,,,,
CC(C)Oc1cccc(-n2c(CCc3c[nH]c4ccc(Br)cc34)nc3ccccc3c2=O)c1,,> 10,> 10,> 10,1.2,0,0,0,94.9,101,101,99.1,73.3,98.6,103,98,102,97.8,102,101,100,99.7,99.3,95.6,93.9,92.9,112,108,> 10,1,119,97.9,107,85.9,92.3
CCCCc1nn(-c2ccccc2C(F)(F)F)c(=O)n1Cc1ccc(-c2ccccc2S(=O)(=O)NC(=O)c2sccc2C)cc1,> 10,,> 10,> 10,0,,0,0,98.6,110,102,100,94.1,,,,,,104,106,102,96.8,104,107,99.2,108,106,109,> 10,0,98.8,115,111,108,102
CCCOc1ccc(Br)cc1-c1cc(-c2ccc(Cl)cc2)[nH]c1-c1ccncc1,> 10,> 10,> 10,> 10,0.2,0,0.4,0,95.3,95.3,93.6,100,84.8,104,106,104,97.5,98.6,95.6,102,99.7,98,85.7,99.6,96.3,103,94.2,103,,1.5,104,97.7,96.1,101,65.9
C[C@H](NC(=O)[C@@H](Cc1c[nH]c2ccccc12)NC(=O)[C@@H](N)Cc1c[nH]cn1)C(=O)N[C@@H](Cc1c[nH]c2ccccc12)C(=O)N[C@H](Cc1ccccc1)C(=O)N[C@@H](CCCCN)C(N)=O,> 10,,> 10,> 10,0,,0,0,92,97,98.7,99.6,110,,,,,,108,100,99.1,100,102,94.6,109,107,107,99.1,,,,,,,
NC[C@@](O)(c1ccc(Cl)cc1)c1ccc(-c2cn[nH]c2)cc1,,2.36,1.16,> 10,1.3,3.9,7.4,0,93.7,104,104,99.9,70,104,103,95.5,94.6,44.4,101,104,97.5,70.5,30.7,98.5,99.9,119,144,105,> 10,1.4,89.6,93.2,111,93.8,79.5
CC(=O)Nc1nc2c(Oc3cc(-c4ccc(C(F)(F)F)cc4)ncn3)cccc2s1 [AMG-517],> 10,,> 10,> 10,0,,0,0,102,96.5,103,97.2,94.4,,,,,,101,102,101,102,99.4,104,86.1,100,92.4,92.5,> 10,0,112,98.3,95.4,102,91.8
CN1CCC(Nc2ncc3ncnc(Nc4ccc(F)c(Cl)c4)c3n2)CC1 [BIBX-1382],,> 10,0.634,1.21,4.4,0.4,8.4,7.6,99,104,85.4,81.4,63.3,99.4,104,95.9,98.9,83.8,104,104,90.1,61.7,36.2,101,115,95.8,70.2,27.4,,2.1,102,93.6,98.8,95.8,68.3
COc1cc2c(cc1OC)C(c1ccc(N)cc1)=NNC(=O)C2 [CFM-2],> 10,> 10,> 10,> 10,0,0,0,0,93.1,102,98.7,95.5,98,97.1,98.2,95.4,95.5,87.1,98.7,93.8,96.6,96.1,100,95.5,100,98.3,112,101,,0.8,109,97.2,104,113,71
CN(C)C(=O)COC(=O)Cc1ccc(OC(=O)c2ccc(NC(=N)N)cc2)cc1 [Camostat mesylate],,> 10,> 10,> 10,,0,0,0,,,,,,104,107,97.4,100,99.4,95.9,105,88.8,102,100,99.8,97.1,104,91,97,> 10,0,102,96.2,97,100,103
CCOC(=O)CNC(=O)[C@@H]1CCCN1C(=O)Cc1ccccc1 [DVD-111],> 10,,> 10,> 10,0,,0,0,110,102,114,97,107,,,,,,103,105,98.8,104,101,106,98.4,106,93.7,116,> 10,0,98.8,97.2,90.9,93.5,96.9
CCc1cccc(CC)c1NC(=O)c1nn(C)c2c1CCc1cnc(Nc3ccc(C(=O)NC4CCN(C)CC4)cc3OC(F)(F)F)nc1-2 [NMS-P715],,> 10,> 10,> 10,,0,0.7,0,,,,,,95.9,99.7,98.1,102,98.7,104,88.8,104,94.7,84.7,91.9,97.7,98.8,105,104,3.99,2.1,114,103,107,112,48.2
Cc1cccc(C)c1NC(=O)C[N+](C)(C)C [QX-222],> 10,,> 10,> 10,0,,0,0,107,97,99.1,100,112,,,,,,102,101,98.7,105,99.7,102,93.8,107,94.9,106,> 10,0,106,103,99,95.5,95.8
CCOC(=O)c1ncn2c1CN(C)C(=O)c1cc(N=[N+]=[N-])ccc1-2 [Ro-15-4513],> 10,,> 10,> 10,0,,0,0,96.2,100,94.6,99.6,109,,,,,,94.6,94,99.3,97.2,104,103,93.9,97,102,108,> 10,0,107,92.2,102,99.1,112
OC(c1ccc(-c2ccc(CN3CCN(Cc4ccncc4)CC3)cc2)c(F)c1)(C(F)(F)F)C(F)(F)F [SR-2211],> 10,> 10,> 10,> 10,2.4,0,0,0,113,95.4,101,86.4,76.1,98.4,106,102,102,95.7,103,99.8,103,100,103,101,101,93.6,95.9,95.5,,2.9,94.2,101,98.8,95.4,58

# From the supplement of paper PMC13380429
